Data on four compounds can be found in PMC7311426, “An amphipathic peptide with antibiotic activity against multidrug-resistant Gram-negative bacteria” (Nature Communications, 2020).

In brackets after ≈: the same amount, converted by molar mass. Where two headings read alike, the source gives them in different places. Residues, ends and D or L forms follow the SMILES beside them.

For assay [1], the system named is E. coli (AID#172 & ATCC 25922). Put plainly: microbe, parasite or virus in culture. The class given is cell-based, Escherichia coli. As to conditions: for MIC: Escherichia coli. Here is the method: (§1) The test media was cation-adjusted MHB (CAMHB, Becton Dickinson) supplemented with 2% Noble Agar (Becton Dickinson) and additionally for AA139 with 0.1% BSA. The agar dilution MIC values were determined as recommended by Clinical and Laboratory Standards Institute (CLSI)[47]. […] The inoculum for the spontaneous mutation plates targeted 10^9 to 10^10 colony-forming units (CFU) per plate. The viable count of each suspension was determined by plating serial ten-fold dilutions onto MHB/NA in duplicate. In addition, agar plates without drug were inoculated as positive controls. Plates were inspected for growth at both 24 and 48 h. Colony counts were determined manually. Using the counts at 48 h, the spontaneous mutation frequency was calculated using the following equation: (average number of colonies from duplicate selection plates)/(total number of cells inoculated onto each plate). If there were no colonies on the antibiotic selection plates, the spontaneous mutation frequency was reported as less than the frequency observed with one colony to indicate that the spontaneous mutation frequency was less than the limit of detection (one CFU).

For assay [2], the system named is P. aeruginosa (UNT138-1 & ATCC 27853). The assay is described as follows: microbe, parasite or virus in culture. The class given is cell-based, Pseudomonas aeruginosa. How it is done:
as §1

For assay [3], the system named is K. pneumoniae. The assay is described as follows: microbe, parasite or virus in culture. The class given is cell-based, Klebsiella pneumoniae. As to conditions: n=2 to 6, mode or median.
Assay [4] deals with K. pneumoniae (#3010 & ST258). Put plainly: microbe, parasite or virus in culture. The class given is cell-based, Klebsiella pneumoniae. How it is done:
as §1

Assay [5] has as its system K. pneumoniae clinical isolates. The assay is described as follows: microbe, parasite or virus in culture. The procedure, abridged: (§2)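 MIC90 from CLSI broth microdilution (M07-A9) in two clinical-isolate panels. US panel (331 isolates, 2010-2012): AA139 diluted in 0.01% acetic acid/0.1% BSA. Worldwide panel (445 isolates, 2011-2013, four regions): CAMHB, with 0.002% Tween 80 added for AA139 and polymyxin B.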

Assay [6] relates to P. aeruginosa clinical isolates. Put plainly: microbe, parasite or virus in culture. In a few lines: as §2
In assay [7] the test system is E. coli clinical isolates. Put plainly: microbe, parasite or virus in culture. In a few lines: as §2
Assay [8] deals with L. monocytogenes. The assay is described as follows: microbe, parasite or virus in culture. In a few lines: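 Broth microdilution in MHB, 2-fold 12-point series from 128 or 64 down to 0.06 or 0.03 μg mL^−1, 5 × 10^5 CFU mL^−1. Extra runs in CAMHB per CLSI and in MHB with 1% agarose; n ≥ 6.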
Assay [9] has as its system E. coli. Details: method as in Hasman H, et al. Euro. Surveill. (2015) 20:49. The conditions noted are these: E. coli ESBL20150072, mcr-1 pos; ESBL; CAMHB; comparator antibiotics; ref Hasman H, et al. Euro. Surveill. (2015) 20:49; cited from earlier work.
Setting [10] is: Worldwide isolates 2011-2013, K. pneumoniae n = 114.
[11] abbreviates: Worldwide isolates 2011-2013, P. aeruginosa n = 111.
The mark [12] stands for this setting: Worldwide isolates 2011-2013, E. coli n = 112.

Consider `CC(C)[C@@H]1NC(=O)[C@H](Cc2ccc(O)cc2)NC(=O)[C@H](Cc2c[nH]c3ccccc23)NC(=O)[C@@H](NC(=O)[C@H](Cc2ccccc2)NC(=O)CN)CSSC[C@@H](C(=O)N[C@@H](CC(N)=O)C(=O)O)NC(=O)[C@H](CCCNC(=N)N)NC(=O)[C@H](CCCNC(=N)N)NC(=O)[C@H](Cc2ccc(O)cc2)NC(=O)[C@@H]2CSSC[C@H](NC1=O)C(=O)N[C@@H](C)C(=O)N[C@@H](CCCNC(=N)N)C(=O)N[C@@H](CCCNC(=N)N)C(=O)N[C@@H](CC(N)=O)C(=O)NCC(=O)N[C@@H](C)C(=O)N[C@@H](CCCNC(=N)N)C(=O)N[C@@H](C(C)C)C(=O)N2` [AA139] (HELM PEPTIDE1{G.F.C.W.Y.V.C.A.R.R.N.G.A.R.V.C.Y.R.R.C.N}$PEPTIDE1,PEPTIDE1,3:R3-20:R3|PEPTIDE1,PEPTIDE1,7:R3-16:R3$$$V2.0), for which the “Agar (Noble) Dilution MIC” value was found to be 8 µg/mL in assay [1] (E. coli ATCC 25922); 8 µg/mL in [1] (E. coli AUD172); 8 µg/mL in assay [2] (P. aeruginosa ATCC 27853); 16 µg/mL in [2] (P. aeruginosa UNT138-1); 16 µg/mL in assay [4] (K. pneumoniae 3010); 16 µg/mL in [4] (K. pneumoniae ST258). Moreover, the “MIC, Serum (50%)” value in assay [3] (K. pneumoniae ATCC 700603 ESBL, OXA-2/SHV-18) turned out to be 8 µg/mL (≈ 3.14 µM). In addition, the “MIC, Survanta (5%)” value in [3] (K. pneumoniae BAA-2146 NDM-1) stood at 2 µg/mL (≈ 0.784 µM). The MIC90 in [5] (US isolates 2010–2012, K. pneumoniae Non-MDR, n = 24) was found to be 4 µg/mL (≈ 1.57 µM); in [5] (Worldwide isolates 2011–2013, K. pneumoniae incl. non-MDR, MDR, XDR, n = 114), 4 µg/mL (≈ 1.57 µM); in [6] (US isolates 2010–2012, P. aeruginosa Non-MDR, n = 41), 8 µg/mL (≈ 3.14 µM); in assay [6] (US isolates 2010–2012, P. aeruginosa XDR, n = 37), 4 µg/mL (≈ 1.57 µM); in assay [6] (Worldwide isolates 2011–2013, P. aeruginosa incl. non-MDR, MDR, XDR, n = 111), 8 µg/mL (≈ 3.14 µM); in assay [7] (US isolates 2010–2012, E. coli MDR, n = 31) it was 0.5 µg/mL (≈ 0.196 µM). This compound had an MIC90 in assay [7] (Worldwide isolates 2011–2013, E. coli incl. non-MDR, MDR, XDR, n = 112) of 0.5 µg/mL (≈ 0.196 µM). The “MIC against colistin-resistant isolates (did not surpass)” value is ≤ 4 µg/mL in assay [5] (all but two K. pneumoniae isolates with a colistin MIC of 8–≥32 μg mL^−1, US panel); ≤ 8 µg/mL in assay [6] (P. aeruginosa with a colistin MIC of >32 μg mL^−1, US panel); ≤ 0.5 µg/mL in assay [7] (E. coli with a colistin MIC of 4 to 16 μg mL^−1, US panel). Also, the “MIC90 (P. aeruginosa)” value in assay [6] (clinical isolates) stood at 8.0 µg/mL (≈ 3.14 µM). Also, the “MIC90 (E. coli)” value in assay [7] (clinical isolates) was found to be 1.0 µg/mL (≈ 0.392 µM). Also, the “BMD MIC” value in assay [8] was determined as 2 µg/mL.
Regarding `C[C@H]1COc2c(N3CCN(C)CC3)c(F)cc3c(=O)c(C(=O)O)cn1c23` [LEV, levofloxacin, reference compound], the MIC in assay [1] (ATCC25922, read-out: Agar (Noble) Dilution MIC, E. coli ATCC 25922) is 0.03 µg/mL (≈ 0.083 µM); in assay [1] (ATCC25922, read-out: Agar (Noble) Dilution MIC, E. coli AUD172), 8 µg/mL (≈ 22.1 µM); in [2] (Pseudomonas aeruginosa, ATCC27853, read-out: Agar (Noble) Dilution MIC, P. aeruginosa ATCC 27853), 2 µg/mL (≈ 5.53 µM); in assay [4] (Klebsiella pneumoniae, read-out: Agar (Noble) Dilution MIC, K. pneumoniae ST258) it was > 8 µg/mL. For the same compound, the MIC90 in assay [5] (Klebsiella pneumoniae) is > 32 µg/mL; in assay [5] (setting [10]), > 32 µg/mL; in assay [6] (Pseudomonas aeruginosa), > 32 µg/mL; in [6] (setting [11]) it was > 32 µg/mL; in assay [7] (Escherichia coli), 16 µg/mL (≈ 44.3 µM); in assay [7] (setting [12]) it was 16 µg/mL (≈ 44.3 µM). In addition, the MIC50 was found to be 0.25 µg/mL (≈ 0.692 µM) in [5] (setting [10]) and 0.06 µg/mL (≈ 0.166 µM) in assay [7] (setting [12]).
Consider `CNC(C)C1CCC(N)C(OC2C(N)CC(N)C(OC3OCC(C)(O)C(NC)C3O)C2O)O1` (centres unmarked) [Gentamicin, gentamicin, reference compound], for which the “BMD MIC” value in assay [9] was >8 µg/mL. In addition, the MIC90 in [5] (Klebsiella pneumoniae, US isolates 2010–2012, K. pneumoniae Non-MDR, n = 24) was 8 µg/mL (≈ 16.8 µM); in assay [5] (Klebsiella pneumoniae, US isolates 2010–2012, K. pneumoniae XDR, n = 55), > 32 µg/mL; in [5] (setting [10]) it was > 32 µg/mL; in assay [6] (Pseudomonas aeruginosa, US isolates 2010–2012, P. aeruginosa Non-MDR, n = 41), > 32 µg/mL; in [6] (Pseudomonas aeruginosa, US isolates 2010–2012, P. aeruginosa XDR, n = 37) it was > 32 µg/mL; in [6] (setting [11]) it was > 32 µg/mL. Also, the MIC90 in assay [7] (Escherichia coli) was 32 µg/mL (≈ 67 µM); in assay [7] (Escherichia coli, US isolates 2010–2012, E. coli MDR, n = 31), > 32 µg/mL; in [7] (Escherichia coli, US isolates 2010–2012, E. coli Non-MDR, n = 24), 8 µg/mL (≈ 16.8 µM); in [7] (setting [12]), 32 µg/mL (≈ 67 µM). The MIC50 in [5] (setting [10]) was determined as 0.5 µg/mL (≈ 1.05 µM); in assay [6] (setting [11]), 2 µg/mL (≈ 4.19 µM); in assay [7] (setting [12]), 0.5 µg/mL (≈ 1.05 µM). Moreover, in assay [8] (Listeria monocytogenes, ATCC19112, read-out: BMD MIC), the MIC turned out to be 0.125 µg/mL (≈ 0.262 µM).
As for “polymyxin B [PolymyxinB, reference compound]”, the “BMD MIC” value in assay [9] is 4 µg/mL; in assay [8] (L. monocytogenes ATCC 19112, MHB, mode of 6 replicates), 4 µg/mL. The MIC50 in assay [5] (setting [10]) was found to be 0.03 µg/mL; in assay [6] (setting [11]), 0.12 µg/mL; in assay [7] (setting [12]), 0.03 µg/mL. Further, the MIC90 in assay [5] (setting [10]) was 0.06 µg/mL; in [6] (setting [11]), 0.25 µg/mL; in [7] (setting [12]) it was 0.03 µg/mL.
